Test results as given in ChEMBL document CHEMBL1641415, “Discovery of a novel hybrid from finasteride and epristeride as 5α-reductase inhibitor” (Bioorg Med Chem Lett, 2011).

Columns and labels:
[1] = target: T1, 3-oxo-5-alpha-steroid 4-dehydrogenase 2 (Homo sapiens) (UniProt P31213); assay: Inhibition of human prostate 5alpha-reductase type 2 assessed as formation dihydrotestosterone from [4-14C] testosterone relative to finasteride; conditions: Prostate gland
T1 sequence (whole entry): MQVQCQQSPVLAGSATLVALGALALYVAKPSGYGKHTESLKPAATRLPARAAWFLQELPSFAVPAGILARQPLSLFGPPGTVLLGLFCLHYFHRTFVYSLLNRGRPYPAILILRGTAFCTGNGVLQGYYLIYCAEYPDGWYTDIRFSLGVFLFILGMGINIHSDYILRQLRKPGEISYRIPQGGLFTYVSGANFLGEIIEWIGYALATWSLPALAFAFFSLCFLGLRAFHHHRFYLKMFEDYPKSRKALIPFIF

[2] = target: T2, 3-oxo-5-alpha-steroid 4-dehydrogenase 2 (Homo sapiens, UniProt P31213); assay: Inhibition of human prostate 5alpha-reductase type 2 assessed as formation dihydrotestosterone from [4-14C] testosterone; type: tissue-based, Prostate gland
T2 sequence (P31213 whole entry): T1 sequence (whole entry)

Ratio [1]	IC50 [2] [µM]	Compound
< 0.055	> 1	C[C@]12CC[C@@H]3c4ccc(OS(=O)(=O)O)cc4CC[C@H]3[C@@H]1CCC(=O)N2
< 0.055	> 1	C[C@]12CC[C@@H]3c4ccc(O)cc4CC[C@H]3[C@@H]1CCC(=O)N2
–	0.035	CC(C)(C)NC(=O)[C@H]1CC[C@H]2[C@@H]3CC[C@H]4NC(=O)C=C[C@]4(C)[C@H]3CC[C@]12C [FINASTERIDE]
0.49	0.071	C[C@]12CCC(C(=O)O)=CC1=CC[C@@H]1[C@@H]2CC[C@]2(C)NC(=O)CC[C@@H]12
